Experimental data as given in patent US9266908B2, “Inhibitors of arginase and their therapeutic applications” (MARS, INCORPORATED, priority 2011, dated 2016).

Key:
[1] = biological target: T1, human arginase I (ARG I) (Homo sapiens, UniProt P05089); test: Inhibition of arginase I, spectrophotometric urea assay at 530 nm
T1 sequence (P05089 1-322): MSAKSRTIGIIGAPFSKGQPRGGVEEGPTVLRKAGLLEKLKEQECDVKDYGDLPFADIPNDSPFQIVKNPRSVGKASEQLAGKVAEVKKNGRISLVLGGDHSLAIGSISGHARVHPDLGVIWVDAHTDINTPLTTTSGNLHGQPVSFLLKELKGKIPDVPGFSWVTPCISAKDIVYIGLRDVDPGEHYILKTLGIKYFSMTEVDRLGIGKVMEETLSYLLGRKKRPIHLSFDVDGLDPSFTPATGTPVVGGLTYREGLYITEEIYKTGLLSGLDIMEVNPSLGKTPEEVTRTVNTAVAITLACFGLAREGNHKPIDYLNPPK
Protocol: (§1) Inhibition of arginase I (ARG I) and arginase II (ARG II) by the inventive compounds is followed spectrophotometrically at 530 nm. […] Solutions of arginase I and II are prepared in 100 mM sodium phosphate buffer, pH 7.4 containing 1 mg/ml of OVA to give an arginase stock solution at a final concentration of 100 ng/ml.
(§2) To each well of a 96-well microtiter plate is add 40 μl of enzyme, 10 μl of an inventive compound and 10 μl of enzyme substrate (L-arginine+ manganese sulfate). For wells that are used as positive controls, only the enzyme and its substrate are added, while wells used as negative controls contain only manganese sulfate.
(§3) After incubating the microtiter plate at 37° C. for 60 minutes, 150 μl of a urea reagent obtained by combining equal proportions (1:1) of reagents A and B is added to each well of the microtiter plate to stop the reaction. The urea reagent is made just before use by combining Reagent A (10 mM o-phthaldialdehyde, and 0.4% polyoxyethylene (23) lauryl ether (w/v) in 1.8 M sulfuric acid) with Reagent B (1.3 mM primaquine diphosphate, 0.4% polyoxyethylene (23) lauryl ether (w/v), 130 mM boric acid in 3.6 M sulfuric acid). After quenching the reaction mixture, the microtiter plate is allowed to stand for an additional 10 minutes at room temperature to allow color development. […] The normalized OD is then used to generate a dose-response curve by plotting the normalized OD values against log [concentration] and using regression analysis to compute the IC50 values.

[2] = biological target: T2, human-Arginase-1 (Homo sapiens, UniProt P05089); test: Urea production in CHOK cells stably transfected with human-Arginase-1; format: cell-based; details: IC50 class, 5 mM arginine, 24 hours, read-out: CHOK Cell
T2 construct: expressed in transfected cells; host or cells: CHOK cells
T2 sequence (P05089 1-322): T1 sequence (P05089 1-322)
Protocol: Table 3 also provides CHOK cell based IC50 values for illustrative arginase inhibitors. IC50 values were determined by measuring the production of urea in CHOK cells stably transfected with human-Arginase-1.
Briefly, CHOK cells were stably transfected with human-arginase-1. To determiner the IC50 values for compounds in accordance with the present invention, parental CHOK cells and arginase-1 stably transfected cells were plated in a 96 well plate. Cells were plated using 200 μl of complete growth medium and incubated overnight at 37° C.
Media from each of the wells containing cells was first removed and growth media supplemented with arginine at a concentration of 5 mM was added to each well. The test compounds were dissolved in PBS buffer to the desired concentration and added to appropriate wells. The plate was then incubated at 37° C. for 24 hours. After 24 hours the plates were spun down at 3000 RPM for 5 min and 50 μl of the media were transferred to a new plate.
An aqueous solution of o-phthaldehyde, Brij, sulfuric acid, primaquine diphosphate and boric acid was added to each well and the plate was incubated for 10-15 minutes. The urea concentration in each well was determined by measuring the optical density at 520-530 nanometers using a standard curve. The IC50 values were calculated by measuring urea production at various concentrations of the inventive arginase inhibitors after subtracting the value related to the concentration of urea in control wells.

[3] = biological target: T3, arginase II (ARG II) (Homo sapiens, UniProt P78540); test: Inhibition of arginase II, spectrophotometric urea assay at 530 nm
T3 sequence (P78540 23-354): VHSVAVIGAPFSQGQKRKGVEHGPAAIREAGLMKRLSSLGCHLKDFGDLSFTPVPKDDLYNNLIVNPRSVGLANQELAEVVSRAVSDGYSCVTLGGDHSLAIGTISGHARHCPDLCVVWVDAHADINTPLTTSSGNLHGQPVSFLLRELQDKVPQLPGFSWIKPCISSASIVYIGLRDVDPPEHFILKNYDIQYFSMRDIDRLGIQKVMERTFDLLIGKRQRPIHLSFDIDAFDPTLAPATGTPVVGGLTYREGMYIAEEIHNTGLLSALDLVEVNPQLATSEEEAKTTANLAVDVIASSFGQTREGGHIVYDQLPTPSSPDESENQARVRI
Protocol: as §1, §2, §3

| IC50 [1] | IC50 [2] | IC50 [3] | SMILES |
| --- | --- | --- | --- |
| 0.1 to 25 nM | 26 to 100 µM | 0.1 to 25 nM | NC(CCCCB(O)O)(C(=O)O)[C@H]1C[C@@H](NCc2ccc3c(c2)Cc2ccccc2-3)C1 (stereo partly drawn) [Example 24, (S)-2-((1s,3R)-3-((9H-fluoren-2-yl)methylamino)cyclobutyl)-2-amino-6-boronohexanoic acid] |
| 26 to 100 nM | 26 to 100 µM | 26 to 100 nM | NC(CCCCB(O)O)(C(=O)O)[C@H]1C[C@@H](NCc2ccccc2-c2ccc(C(F)(F)F)cc2)C1 (stereo partly drawn) [Example 25, (S)-2-amino-6-borono-2-((1s,3R)-3-((4′-(trifluoromethyl)biphenyl-2-yl)methylamino)cyclobutyl)hexanoic acid] |
| 0.1 to 25 nM | 26 to 100 µM | 26 to 100 nM | NC(CCCCB(O)O)(C(=O)O)[C@H]1C[C@@H](NCc2ccc(C3CCCCC3)cc2)C1 (stereo partly drawn) [Example 26, (S)-2-amino-6-borono-2-((1s,3R)-3-(4-cyclohexylbenzylamino)cyclobutyl)hexanoic acid] |
| 101 to 500 nM | 26 to 100 µM | 501 to 1500 nM | NC(CCCCB(O)O)(C(=O)O)[C@H]1C[C@@H](N(Cc2ccccc2)Cc2ccccc2)C1 (stereo partly drawn) [Example 27, (S)-2-amino-6-borono-2-((1s,3R)-3-(dibenzylamino)cyclobutyl)hexanoic acid] |
| 101 to 500 nM | 1 to 25 µM | 101 to 500 nM | CNC(CCCCB(O)O)(CCN1Cc2ccccc2C1)C(=O)O (stereo not drawn) [Example 30, 6-borono-2-(2-(isoindolin-2-yl)ethyl)-2-(methylamino)hexanoic acid] |
| 101 to 500 nM | 26 to 100 µM | 101 to 500 nM | CNC(CCCCB(O)O)(CCN1CCC(C)CC1)C(=O)O (stereo not drawn) [Example 33, 6-borono-2-(methylamino)-2-(2-(4-methylpiperidin-1-yl)ethyl)hexanoic acid] |
| 101 to 500 nM | 26 to 100 µM | 101 to 500 nM | CNC(CCCCB(O)O)(CCNCc1ccc(Cl)c(Cl)c1)C(=O)O (stereo not drawn) [Example 35, 6-borono-2-(2-(3,4-dichlorobenzylamino)ethyl)-2-(methylamino)hexanoic acid] |
| 101 to 500 nM | 1 to 25 µM | 101 to 500 nM | CNC(CCCCB(O)O)(CCN1CCC(c2ccccc2)CC1)C(=O)O (stereo not drawn) [Example 36, 6-borono-2-(methylamino)-2-(2-(4-phenylpiperidin-1-yl)ethyl)hexanoic acid] |
| 26 to 100 nM | 1 to 25 µM | 101 to 500 nM | NC(CCCCB(O)O)(CCCN1Cc2ccccc2C1)C(=O)O (stereo not drawn) [Example 39, 2-amino-6-borono-2-(3-(isoindolin-2-yl)propyl)hexanoic acid] |
| 26 to 100 nM | 1 to 25 µM | 101 to 500 nM | NC(CCCCB(O)O)(CCCN1CCc2c(Cl)cccc2C1)C(=O)O (stereo not drawn) [Example 40, 2-amino-6-borono-2-(3-(5-chloro-3,4-dihydroisoquinolin-2(1H)-yl)propyl)hexanoic acid] |
| 101 to 500 nM | 1 to 25 µM | 101 to 500 nM | NC(CCCCB(O)O)(CCCN1CCc2ccccc2C1)C(=O)O (stereo not drawn) [Example 41, 2-amino-6-borono-2-(3-(3,4-dihydroisoquinolin-2(1H)-yl)propyl)hexanoic acid] |
| 26 to 100 nM | 26 to 100 µM | 26 to 100 nM | NC(CCCCB(O)O)(C(=O)O)[C@H]1CC[C@@H](NCc2ccc(-c3ccccc3)cc2)C1 (stereo partly drawn) [Example 44] |

| SMILES | IC50 [1] | IC50 [2] | IC50 [3] |
| --- | --- | --- | --- |
| NC(CCCCB(O)O)(C(=O)O)C1CC2CCC(C1)N2Cc1ccc(Cl)cc1 [Example 45, 2-amino-6-borono-2-{(1R,5S)-8-(4-chlorobenzyl)-8-aza-bicycli[3.2.1]-octan-3-yl}-hexanoic acid] | 0.1 to 25 nM | 1 to 25 µM | 26 to 100 nM |
| NC(CCCCB(O)O)(C(=O)O)C1CC2CCC(C1)N2Cc1ccc(Cl)c(Cl)c1 [Example 46, 2-Amino-6-borono-2-{(1R,5S)-8-(3,4-dichlorobenzyl)-8-aza-bicycli[3.2.1]-octan-3-yl}-hexanoic acid] | 0.1 to 25 nM | 1 to 25 µM | 0.1 to 25 nM |
